Assay results published in PMC2330087, “Mechanistic Insights into a Novel Exporter-Importer System of Mycobacterium tuberculosis Unravel Its Role in Trafficking of Iron” (PLoS ONE, 2008).

Molecular target: T1, rIrtA (Rv1348) in LP-48 liposomes (Mycobacterium tuberculosis, UniProt P9WQJ9)
T1 construct: gene irtA
T1 sequence (P9WQJ9 whole entry): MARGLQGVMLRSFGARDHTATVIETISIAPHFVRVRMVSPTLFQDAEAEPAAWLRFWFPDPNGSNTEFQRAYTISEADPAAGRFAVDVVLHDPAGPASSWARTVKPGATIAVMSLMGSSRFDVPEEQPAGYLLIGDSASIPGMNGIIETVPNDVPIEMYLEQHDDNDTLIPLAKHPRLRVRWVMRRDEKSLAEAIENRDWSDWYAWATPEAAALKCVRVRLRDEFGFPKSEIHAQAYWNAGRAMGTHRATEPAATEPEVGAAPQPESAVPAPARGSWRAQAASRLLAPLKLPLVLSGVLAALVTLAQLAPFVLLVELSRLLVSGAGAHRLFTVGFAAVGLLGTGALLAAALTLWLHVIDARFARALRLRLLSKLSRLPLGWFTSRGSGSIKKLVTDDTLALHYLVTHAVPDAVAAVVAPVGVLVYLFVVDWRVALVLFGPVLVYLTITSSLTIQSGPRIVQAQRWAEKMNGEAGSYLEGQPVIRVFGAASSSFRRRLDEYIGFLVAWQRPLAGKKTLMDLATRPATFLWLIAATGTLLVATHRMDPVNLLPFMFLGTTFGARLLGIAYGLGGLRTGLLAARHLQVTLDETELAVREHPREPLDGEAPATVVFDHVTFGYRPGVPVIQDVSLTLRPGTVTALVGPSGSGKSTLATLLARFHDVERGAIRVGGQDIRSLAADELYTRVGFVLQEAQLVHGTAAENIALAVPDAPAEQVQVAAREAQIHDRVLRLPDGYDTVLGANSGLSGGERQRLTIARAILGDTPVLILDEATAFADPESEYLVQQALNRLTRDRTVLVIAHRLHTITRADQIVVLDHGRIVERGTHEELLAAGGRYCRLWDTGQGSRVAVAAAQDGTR

## Nc1ncnc2c1ncn2[C@@H]1O[C@H](COP(=O)(O)OP(=O)(O)OP(=O)(O)O)[C@@H](O)[C@H]1O [ATP]
  inorganic phosphate release in proteoliposomes: the ATP hydrolysis by rIrtA was not seen in the absence of cMyco
